For data set [1], the system named is SAS cells. Put plainly: Fluorescence-based peptide binding assay (confocal microscopy). In kind it is cell-based, human. The note with it: 50 ng/μl labeled peptide, 37 °C; for Cell uptake: fluorescent signal in cytoplasm: one hour and later. As for the experimental part:
Figure 1 Evaluation of peptide binding activity to SAS cells. (a) IF analysis of F7 peptide and SP peptide binding to SAS cells. […] Red: Lissamine Rhodamine labeled F7 peptide, Green: FITC labeled SP peptide, Blue: DAPI; BF, bright field; Scale bar, 10 μm. (b) The kinetics of F7 peptide binding to SAS-EGFP-Fluc cells. Cells were incubated in the presence of 50 ng/μl peptides at 37 °C for the indicated periods of time. (c) The kinetics of SP peptide binding to SAS-E2-crimson-P2A::ttksr39 cells at indicated time points.
SAS-EGFP-Fluc and SAS-E2-crimson-P2A::ttksr39 were seeded on 8-well chamber slides and incubated with fluorescein labeled F7 peptide and SP peptide respectively for the different time points (0, 0.25, 0.5, 1, 2, 4, 8, 12 and 24 h). HEK293 cell lines without expression of vimentin and nucleolin served as a negative control for the specificity of peptides. After removal of the medium and a PBS rinse, the cells were fixed with 3.7% paraformaldehyde for 10 min followed by PBS washing for 3 times. Subsequently, all slides were mounted with VECTASHIELD Mounting Medium with DAPI (cat. H-1200, Vector Labs, Burligame, CA, USA) and covered with cover glasses before visualization under a laser-scanning microscope (Zeiss LSM 880, Jena, Germany) with Zen Blue software (ZEISS, Jena, Germany).

Data set [2] has as its system SAS spheres expressing CD44. Kind of data set: Peptide binding to tumor spheres (confocal microscopy). In kind it is cell-based, human. The note with it: fluorescein-labeled peptides, 24 h incubation. The text has this: Figure 2 Expression of CSC markers corresponding to peptide binding. (a) Phase-contrast photomicrographs of the spheres cultured from SAS-E2-crimson-P2A::ttksr39 cell line using the ultra-low attachment plate. Right panel: adherent cells. magnification, 100×. (b) ICC results showing the expression of representative CSC marker, CD44 and EMT markers, vimentin and nucleolin in spheres (upper panel) and adherent cells (lower panel). E-cadherin is an epithelial cell marker. (c) The peptide binding to tumor spheres which highly expressed CD44. The arrow indicates the presence of F7 and SP peptide. Red: Lissamine Rhodamine labeled F7 peptide, Green: FITC labeled SP peptide, Blue: DAPI; Scale bar, 20 μm. (d) Comparison of peptides binding to spheres and adherent cells. Yellow: colocalization.
SAS cells were seeded in a 6-well cell culture plate with ultra-low attachment (Corning Costar, Tewksbury, MA, USA) at the density of 1 × 10^5 cells/well and incubated for 3–5 days in a 5% CO2 humidified incubator at 37 °C. All measurements on the SAS spheroids were carried out with a diameter of approximately 0.75 mm. For ICC-IF staining, the spheroids were fixed in 3.7% paraformaldehyde, washed with PBS and permeated with 0.1% Triton X-100 for 10 min before blocking with 20% FBS for 10 min at 37 °C, followed by the incubation with anti-CD44 antibody (GTX102111, GeneTex, Irvine, CA, USA) at 4 °C overnight. […]

For data set [3], the system named is EMT-induced SAS cells. Kind of data set: Flow cytometry analysis of peptide binding to EMT-induced cells. The note with it: 50 ng/μl labeled peptide, 24 h, 37 °C, after Unc0642 and/or IR treatment. In kind it is cell-based, human. How it is done:
Figure 4 Evaluation of peptide binding activity to EMT derived cells induced by Unc0642/IR. After treatment of Unc0642 or radiation, EMT derived cells were incubated for 24 h in the presence of 50 ng/μl of fluorescein-labeled F7 (a) and SP peptide (b) at 37 °C respectively. FACS analysis was performed on gated live cells and light scatter parameters were measured using the 488 nm laser. The dot plot represented the particle size (FSC) versus granularity (SSC) of the cell population. The histogram represented the number of cells from P1 and P2 regions displaying a given fluorescence signal. Right graph: the quantitative analysis in the ratio of fluorescein-labeled peptides binding to SAS cells.
The cells were treated for EMT induction as described above. Then, 50 ng/μl of F7 and SP peptides were added into the culture medium and co-incubated for 24 h. The cells were detached and fixed with 3.7% paraformaldehyde for 15 min followed by resuspension in PBS. FACS analysis was performed on gated live cells using a flow cytometer (Beckman Coulter CytoFLEX, Brea, CA, USA).
(In flow cytometry, cells or beads pass a laser one at a time.)

In data set [4] the test system is SAS xenograft tumor. Kind of data set: Peptide binding in tumor after intra-tumoral injection (IF of excised tumor). The note with it: intra-tumoral injection on day 31, tumors excised after 24 h; Unc0642/IR-treated groups versus control; F7 in SAS-EGFP-Fluc, SP in SAS-wt tumors. In kind it is in vivo, mouse. The text has this:
Figure 5 Evaluation of peptide binding ability in SAS xenograft mouse model after the treatment of Unc0642/IR. (a) Schematic diagram for in vivo EMT induction via the treatment of Unc0642 and radiation. (b) Evaluation of the effect of Unc0642/IR in SAS-EGFP-Fluc-bearing mice by optical bioluminescence image. (c) Tumor burden of each group was monitored at indicated time points. Data represent mean ± SD (n = 5–6/group). *p < 0.05, **p < 0.01, ***p < 0.001 by Student’s t-test. ***p = 0.00058, Ctrl versus Unc0642 on day 14; *p = 0.049, Ctrl versus IR on day 18; **p = 0.0023, Ctrl versus IR on day 21; *p = 0.0179, Ctrl versus IR on day 24; *p = 0.036, Ctrl versus Unc0642 + IR on day 24. (d) The body weights of mice were recorded during the period of monitoring. Data are mean ± SD (n = 5–6/group). (e, f) Mice were given an intra-tumoral injection of peptide. At 24 h later, tumor samples were excised and the signal derived from the peptide was observed using confocal microscopy. Representative confocal micrographs of tissue sections immunolabeled with CD44. The arrowheads indicate the presence of F7 and SP peptide. Blue: DAPI. Scale bar, 20 μm. […]

For data set [5] the following is noted: 37 °C, ref previous studies; cited from earlier work. The text has this:
Despite the cancer cells captured by F7 or SP peptide were identified as CSCs that expressed CD44, single peptide binding cells (F7+ or SP+) and double peptides binding cells (F7+ /SP+ , as shown in Fig. 2d) were considered as different subpopulations that exist at the different stages of cancer. […] There are several possibilities for these findings. First, the permeability ...

Data set [6] has as its system SAS cells. Put plainly: Western blot of EMT/CSC markers after in vitro induction of EMT. In kind it is cell-based, human. The note with it: TGF-β1 10 and 20 ng/ml, SAS cells, immunoblotting (Fig. S2). How it is done:
To induce the EMT of SAS cells, cells were seeded in 60 mm^2 dishes at the density of 1 × 10^6 cells/dish overnight and incubated with 1.25 and 10 μM Unc0642. After 24 h, cells were exposed under 2 Gy and 4 Gy of radiation by a RS2000 Series Biological Irradiator (Rad Source Technologies Inc, Buford, GA, USA) and replaced with fresh Unc0642 containing medium every 24 h. The expression of vimentin and E-cadherin were detected by western blotting.
Cultured cells were placed on ice, washed by ice-cold PBS and lysed using CytoBuster Protein Extraction Reagent (cat. 71,009, Bedford, MA, USA) containing Protease Inhibitor Cocktail Set I (cat. 539131, Millipore, Bedford, MA, USA). Cells were then scraped, collected in Eppendorf tubes and the sonicated for 30 min. The lysate was spun down at 12,000 g for 10 min at 4 °C. The protein content was measured using Bradford reagent (BIO-RAD, Hercules, CA, USA). The equal amounts of protein (40 μg) were separated in SDS-PAGE gels (30% Acrylamide/Bis Solution, 29:1, cat. 1610157, BIO-RAD, Hercules, CA, USA) and transferred to PVDF membranes (cat. NEF1002001PK, Perkin-Elmer life sciences, Boston, MA, USA). For immunoblotting, membranes were cut in terms of the molecular weight range prior to hybridization with primary antibody for vimentin (GTX100619, GeneTex, Irvine, CA, USA), nucleolin (GTX132778, GeneTex, Irvine, CA, USA), E-cadherin (GTX50757, GeneTex, Irvine, CA, USA) and b-actin (GTX109639, GeneTex, Irvine, CA, USA) overnight at 4 °C and then incubated with horseradish peroxidase HRP-conjugate goat anti-rabbit IgG (GeneTex, Irvine, CA, USA). Protein signals were visualized using a LumiFast Chemiluminescence Detection Kit (cat. JT96-K001S, T-Pro Biotechnology, Taiwan). Image capture was performed on an ImageQuant LAS4000 biomolecular image (GE healthcare life, Chicago, IL, USA). The intensities of protein bands were quantitated using ImageJ Gel Analysis program. Quantification of protein expression was performed by Image J. b-actin was used as loading control.
(In general: Immunoblotting shows a protein as a band on a membrane.)

Consider DMPGTVLP [F7 peptide], for which, in data set [1], the “Intracellular localisation at 24 h” value is “remained at the edge of nucleus and no longer moved”; the “Cell uptake: fluorescent signal in cytoplasm” value was “appeared in cytoplasm gradually and accumulated with the incubation time”. In addition, the “Binding to CD44 expressing spheres” value in data set [2] was “able to bind and detect CSCs”. The “Peptide binding to EMT-induced SAS cells (FACS)” value in data set [3] is “increased with increasing dose of IR and Unc0642”. Also, the “Amount of labeled peptide in tumor tissue” value in data set [4] is reported as “increased in tumor tissues”. Further, in data set [5], the “Stability in the presence of serum” value is “high stability”.

As for SAHGTSTGVPWP [SP peptide], in data set [1], the “Intracellular localisation at 24 h” value was “remained at the edge of nucleus and no longer moved”; the “Cell uptake: fluorescent signal in cytoplasm” value is “appeared in cytoplasm gradually and accumulated with the incubation time”. Besides, in data set [2], the “Binding to CD44 expressing spheres” value was “able to bind and detect CSCs”. Also, the “Peptide binding to EMT-induced SAS cells (FACS)” value in data set [3] is “significantly higher in combined Unc0642- and IR-treated SAS cells”. Besides, the “Amount of labeled peptide in tumor tissue” value in data set [4] is given as “increased in tumor tissues”. Also, the “Stability in the presence of serum” value in data set [5] is reported as “high stability”.

On to “TGF-β1: multifunctional cytokine used to induce EMT”, for which, in data set [6], the E-cadherin expression entry is listed as “downregulated the expression of E-cadherin” and the Vimentin expression result is on record as “upregulated the expression of vimentin”.

The values above are taken from publication PMC8599855, “Detection of cancer stem cells by EMT-specific biomarker-based peptide ligands” (Scientific Reports, 2021).
